Reference: ChEMBL document CHEMBL1143044, “The isolation of secondary metabolites and in vitro potent anti-cancer activity of clerodermic acid from Enicosanthum membranifolium” (Bioorg Med Chem, 2007)
Activity calls are given as the source filed them. No cut-off for these calls is given here.

What was measured:
Format in all cases: functional, cell-based
[1] = tested on: HL-60; assay: Growth inhibition of human HL60 cells by Trypan blue exclusion test
[2] = tested on: HL-60; assay: Induction of apoptosis in human HL60 cells assessed as nucleosomal DNA fragmentation after 24 hrs
[3] = tested on: HL-60; assay: Induction of apoptosis in human HL60 cells at 200 uM in presence of 100 uM caspase inhibitor ZVADFMK by Trypan blue exclusion test

C[C@@H]1CC[C@@]2(C)C(C(=O)O)=CCCC2[C@@]1(C)CCC1=CC(=O)OC1 (stereo partly drawn) [CLERODERMIC ACID]
IC50 [1]: 68 µM | Activity [2]: Active | Activity [3]: Active
